Laboratory results published in patent publication US5116855A, “Rhodanine derivatives and pharmaceutical compositions” (Nisshin Flour Milling Co., Ltd., priority 1989, dated 1992).

Molecular target: T1, aldose reductase (Rattus norvegicus, UniProt P07943)
T1 construct: the lenses were excised and homogenized in cold distilled water; from tissue; host or cells: lens of male SD rats, homogenate supernatant (crude enzyme)
Assay: Inhibitory activity against aldose reductase (crude enzyme from rat lenses, NADPH oxidation at 340 nm, D,L-glyceraldehyde substrate)
Format: biochemical
Conditions: aldose reductase from SD rat lenses, pH 6.2, 30° C.; for inhibition at 10 µM: pH 6.2, 10^-5 M; for inhibition at 10 µM / inhibition at 1 µM: read-out: Percentage of inhibition (%); for inhibition at 1 µM: pH 6.2, 10^-6 M
Protocol: The compounds of the present invention were evaluated for the inhibitory activity against aldose reductase according to the following assay procedure.
Enzyme activity was assayed according to the modification [Biochemical Pharmacology, 25, 2505 (1976)] of the method described in J. Biol. Chem., 240, 877-882 (1965).
SD strain male rats were sacrificed by decapitation, the lenses were excised and homogenized in cold distilled water. The homogenate was then centrifuged and the supernatant was used as the crude aldose reductase solution.
Separately, a 0.1 M sodium phosphate buffer (pH 6.2) containing 0.4 M ammonium sulfate was prepared at 30° C. In this buffer were dissolved the present compound, the crude aldose reductase solution and nicotinamide-adenine dinucleotide phosphate, reduced form (NADPH). The mixture was preincubated at 30° C. for 3 minutes and the reaction was initiated by addition of D,L-glyceraldehyde. In this case, the concentration of the present compound dissolved was 10^-5 M and 10^-6 M, respectively. The total amount of the assay mixture was 1.0 ml, containing 0.16 mM of NADPH, 10 mM of D,L-glyceraldehyde and 0.010-0.016 units of aldose reductase.
The inhibitory activity of the present compounds against aldose reductase was measured using each 1.0 ml of the reaction mixture containing the present compound in the above concentration. In this measurement, the rate of NADPH oxidation was followed by recording the decrease in absorbance at 340 nm. The inhibitory activity of the present compounds against aldose reductase as measured was expressed in percentage of inhibition (%) as a relative activity based on a control value.

Compound	inhibition at 10 µM [%]	inhibition at 1 µM [%]	Percentage of inhibition (%) (10^-5 M)	Percentage of inhibition (%) (10^-6 M)
CC(C=Cc1cc(C)c(OCC(=O)O)c(C)c1)=C1SC(=S)NC1=O [Example 87, 2,6-Dimethyl-4-[3-(4-oxo-2-thioxo-5-thiazolinylidene)-1-butenyl]phenoxyacetic acid]	89.6	60.5		
CC(CCCC(=O)Nc1ccccc1C(=O)O)=C1SC(=S)NC1=O [Example 37, N-[5-(4-Oxo-2-thioxo-5-thiazolidinylidene)hexanoyl]anthranilic acid]	56.4			
CCCC(=Cc1ccccc1OCC(=O)OC)C=C1SC(=S)NC1=O (single isomer, unassigned) [61 Isomer A]	61.8	28.7		
CCOc1cc(C=CC(C)=C2SC(=S)NC2=O)ccc1OCC(=O)OC [Example 44, Methyl 2-ethoxy-4-[3-(4-oxo-2-thioxo-5-thiazolinylidene)-1-butenyl]phenoxyacetate]	39.1			
CCOC(=O)CCC(C=Cc1cccs1)=C1SC(=S)NC1=O (single isomer, unassigned) [13 Isomer B]			54.3	
COC(=O)COc1ccc(C(C)C)cc1C=CC(C)=C1SC(=S)NC1=O (single isomer, unassigned) [62 Isomer A]	48.3			
CCCC(CCc1ccccc1OCC(=O)O)=C1SC(=S)NC1=O (single isomer, unassigned) [27 Isomer A]	90.6	53.1		
CC(C=Cc1ccc(OCC(=O)O)c(OCC(=O)O)c1)=C1SC(=S)NC1=O (single isomer, unassigned) [83 Isomer B]			75.8	36.8
COC(=O)COc1ccc(Cl)cc1C=CC(C)=C1SC(=S)NC1=O [Example 49, Methyl 4-chloro-2-[3-(4-oxo-2-thioxo-5-thiazolinylidene)-1-butenyl]phenoxyacetate]	80	30.5		
COc1ccc(C=CC(CCCC(=O)O)=C2SC(=S)NC2=O)cc1OC (single isomer, unassigned) [38 Isomer B]			94.5	77.9
COC(=O)COc1c(OC)cc(C=CC(C)=C2SC(=S)NC2=O)cc1OC [Example 48, Methyl 2,6-dimethoxy-4-[3-(4-oxo-2-thioxo-5-thiazolinylidene)-1-butenyl]phenoxyacetate]	69.1			
O=C(O)CCC(C=Cc1ccccc1F)=C1SC(=S)NC1=O (single isomer, unassigned) [Example 22, 6-(2-Fluorophenyl)-4-(4-oxo-2-thioxo-5-thiazolidinylidene)-5-hexenoic acid]	88.1	41.9		
CCOC(=O)CCC(C=Cc1ccc(C(=O)OC)cc1)=C1SC(=S)NC1=O [Example 12, Ethyl 6-(4-methoxycarbonylphenyl)-4-(4-oxo-2-thioxo-5-thiazolidinylidene)-5-hexenoate]	42.8			
O=C(O)CCC(C=Cc1ccc(C(=O)O)cc1)=C1SC(=S)NC1=O [Example 29, 6-(4-Carboxyphenyl)-4-(4-oxo-2-thioxo-5-thiazolidinylidene)-5-hexenoic acid]	82.8	38.5		
O=C1NC(=S)SC1=Cc1ccc(OCCCCc2nnn[nH]2)cc1 [Example 20, 5-{4-[4-(1H-Tetrazol-5-yl)butyloxy]benzylidene}-4-oxo-2-thioxothiazolidine]	84	43.9		
CC(C=Cc1cc(C(F)(F)F)ccc1OCC(=O)O)=C1SC(=S)NC1=O [Example 89, 4-Trifluoromethyl-2-[3-(4-oxo-2-thioxo-5-thiazolinylidene)-1-butenyl]phenoxyacetic acid]	92.9	85.7		
COc1cc(C=CC(C)=C2SC(=S)NC2=O)cc(OC)c1OCC(=O)O [Example 74, 2,6-Dimethoxy-4-[3-(4-oxo-2-thioxo-5-thiazolinylidene)-1-butenyl]phenoxyacetic acid]	74.3			
CCCCCCC(C=Cc1ccc(C(=O)O)cc1)=C1SC(=S)NC1=O (single isomer, unassigned) [26 Isomer A]		68.9	92.0	
COC(=O)COc1ccc(C=CC(C)=C2SC(=S)NC2=O)cc1OC [Example 42, Methyl 2-methoxy-4-[3-(4-oxo-2-thioxo-5-thiazolinylidene)-1-butenyl]phenoxyacetate]	54.2	33.8		

Compound	inhibition at 10 µM [%]	inhibition at 1 µM [%]	Percentage of inhibition (%) (10^-5 M)	Percentage of inhibition (%) (10^-6 M)
COC(=O)COc1ccc(Br)cc1C=CC(C)=C1SC(=S)NC1=O [Example 56, Methyl 4-bromo-2-[3-(4-oxo-2-thioxo-5-thiazolinylidene)-1-butenyl]phenoxyacetate]	63.9	27.1		
COc1cc(CCC(C)=C2SC(=S)NC2=O)ccc1OCC(=O)O [Example 69, 2-Methoxy-4-[3-(4-oxo-2-thioxo-5-thiazolinylidene)butyl]-phenoxyacetic acid]	78.4	46.4		
COc1cc(C=CC(C)=C2SC(=S)N(C)C2=O)ccc1OCC(=O)O [Example 78, 2-Methoxy-4-[3-(3-methyl-4-oxo-2-thioxo-5-thiazolinylidene)-1-butenyl]phenoxyacetic acid]	87.1	65.9		
COC(=O)COc1ccccc1C=CC(C)=C1SC(=S)NC1=O [Example 40, Methyl 2-[3-(4-oxo-2-thioxo-5-thiazolinylidene)-1-butenyl]phenoxyacetate]	38.8			
COC(=O)COc1ccccc1C=C(C)C=C1SC(=S)NC1=O [Example 63, Methyl 2-[2-methyl-3-(4-oxo-2-thioxo-5-thiazolinylidene)-1-propenyl]phenoxyacetate]			80.5	32.2
CCCCCCC(C=Cc1ccc(C=CC(=O)O)cc1)=C1SC(=S)NC1=O (single isomer, unassigned) [Example 28, 4-[3-(4-Oxo-2-thioxo-5-thiazolidinylidene)-1-nonenyl]cinnamic acid]	33			
CCOC(=O)CCC(C=Cc1ccc(C#N)cc1)=C1SC(=S)NC1=O [Example 7, Ethyl 6-(4-cyanophenyl)-4-(4-oxo-2-thioxo-5-thiazolidinylidene)-5-hexenoate]	50.9			
COC(=O)c1ccccc1NC(=O)C(C)=C1SC(=S)NC1=O [Example 18, Methyl N-[2-(4-oxo-2-thioxo-5-thiazolidinylidene)propionyl]anthranilate]	84	62.6		
CC(C=Cc1ccc(OCC(=O)O)cc1)=C1SC(=S)NC1=O (single isomer, unassigned) [21 Isomer B]			89.8	
Ethyl 4-[3-(4-oxo-2-thioxo-5-thiazolidinylidene)-1-butenyl]-methoxyphenoxyacetate [Example 15]			66.7	35.3
CC(=Cc1ccccc1OCC(=O)O)C=C1SC(=S)NC1=O [Example 86, 2-[2-Methyl-3-(4-oxo-2-thioxo-5-thiazolinylidene)-1-propenyl]phenoxyacetic acid]			89.7	69.6
COC(=O)COc1ccc(C=CC(C)=C2SC(=S)NC2=O)cc1OCC(=O)OC (single isomer, unassigned) [60 Isomer B]			70.3	30.4
CCOc1cc(C=CC(C)=C2SC(=S)NC2=O)ccc1OCC(=O)O [Example 70]	87.4	62.2		
COC(=O)COc1ccc(C=CC(C)=C2SC(=S)NC2=O)cc1OCC(=O)OC (single isomer, unassigned) [60 Isomer A]	61.5	27.7		
CCOc1cc(CCC(C)=C2SC(=S)NC2=O)ccc1OCC(=O)O [Example 71, 2-Ethoxy-4-[3-(4-oxo-2-thioxo-5-thiazolinylidene)butyl]phenoxyacetic acid]	73.8			
CCCC(=Cc1ccccc1OCC(=O)O)C=C1SC(=S)NC1=O [Example 84, 2-[2-Propyl-3-(4-oxo-2-thioxo-5-thiazolinylidene)-1-propenyl]phenoxyacetic acid]	92	77.6		
O=C(O)CCC(C=Cc1cccs1)=C1SC(=S)NC1=O [Example 30, 6-(2-Thienyl)-4-(4-oxo-2-thioxo-5-thiazolidinylidene)-5-hexenoic acid]	73			
COC(=O)COc1ccc(C(C)C)cc1C=CC(C)=C1SC(=S)NC1=O (single isomer, unassigned) [62 Isomer B]			66.7	
Cc1ccsc1C=CC(CCC(=O)O)=C1SC(=S)NC1=O [Example 31, 6-(3-Methyl-2-thienyl)-4-(4-oxo-2-thioxo-5-thiazolidinylidene)-5-hexenoic acid]	83.6	39.8		
